Data published in patent US20120232025A1, “SAFENER DRUG COMBINATIONS FOR USE WITH NMDA […]” (priority 2010, published 2012).
Like-named read-outs stand apart in the source and are kept apart here.

Experiments:
[1] = system: neuropathic pain; conditions: cited from earlier work
[2] = system: neurotoxic side effects of MK-801 or phencyclidine; conditions: cited from earlier work
[3] = system: psychotomimetic effects; conditions: cited from earlier work
[4] = system: depressive symptoms; conditions: cited from earlier work
[5] = system: cerebrocortical neurons; conditions: rats, persistent administration of the NMDA antagonist; cited from earlier work
[6] = system: excitotoxic neurodegeneration; assay: standard animal models of excitotoxic neurodegeneration; type: in vivo; conditions: only at very high doses that cause severe functional and behavioral disturbances
Source text: However, it may well be that such concerns, by the Applicants, are not especially serious or acute, in view of the relatively low dosages of memantine that are actually being administered to Alzheimer patients. The Applicants have tested memantine, in animals, to measure and quantify its ability to protect against excitotoxic neurodegeneration, using several standard animal models that are used to test and measure excitotoxic neurodegeneration. […] Therefore, it is very unlikely that memantine is being administered, to Alzheimer patients, at dosages that are actually high enough to prevent excitotoxic neurodegeneration, since the dosages being used in human patients are not causing the types of observable functional disturbances that have been seen when anti-excitotoxic dosages are administered.

[7] = system: Alzheimer's disease; conditions: cited from earlier work
[8] = system: neurotoxic side effects of MK-801 or phencyclidine; assay: safener protection against neurotoxic side effects (vacuole formation) of NMDA antagonists; type: in vivo, rat
[9] = as an anesthetic; cited from earlier work
[10] = system: neuropathic pain; assay: animal models of neuropathic pain; type: in vivo
[11] = system: cerebrocortical neurons; assay: vacuole formation / neurotoxic damage in rat brain after NMDA antagonist administration; conditions: for vacuole-forming ED100 dosage: intraperitoneal injection, aging female rats, vacuole response in 100% of animals; for potency relative to MK-801 (from ED100 numbers): vacuole formation / NMDA receptor blocker ranking, fraction of MK-801 potency
Source text: First, that dosage is based on intraperitoneal injection. […] This is a simple, quick, and convenient mode of injection, and it is widely used in research. If desired, intravenous injection in rats can be performed by using the tail vein, but that is slower, more tedious, more difficult, and more prone to experimental error.
This runs contrary to most types of drug tests on rats, in which females tend to be avoided, because of potentially uncontrolled variables created by reproductive hormones. Most female rats that have been used, in tests done to date, are retired breeders, with ages of about 7 months or more.
For convenience, to avoid having to use subscript fonts or notations, terms such as […] also can be written as ED-100, or simply as […].
Whenever a term such as ED100 is being used, it requires an understanding of any essential factors that should be known by any researchers who might try to perform similar tests. In this situation, researchers would need to know the route of administration (intraperitoneal injection), and the types of animals used to determine the ED100 level (i.e., aging female rats).

[12] = system: neuropathic pain; conditions: cited from earlier work; remark: listed apart in the source

Structure (SMILES): Clc1cccc(Cl)c1N=C1NCCN1 [clonidine]
- effect on MK-801's neuropathic pain-relieving activity ([1]; administered together with MK-801): potentiates
- neuropathic pain relieving activity ([1]; alone): neuropathic pain relieving activity
- neurotoxic effects of NMDA antagonists in animals [2]: suppressed or prevented
- psychotomimetic effects of NMDA antagonists in humans [3]: suppressed or prevented

Structure (SMILES): Nc1nc2ccc(OC(F)(F)F)cc2s1 [riluzole]
- benefit in major depression ([4]; Zarate et al 2004): beneficial

Structure (SMILES): Nc1nnc(-c2cccc(Cl)c2Cl)c(N)n1 [lamotrigine]
- neurotoxic effects of NMDA antagonists in animals [2]: suppressed or prevented
- psychotomimetic effects of NMDA antagonists in humans [3]: suppressed or prevented

Structure (SMILES): [N-]=[N+]=O [nitrous oxide]
- time after which irreversible changes inside animal brains begin to manifest [5]: about 8 hours

Structure (SMILES): N=C(N)N/N=C/c1c(Cl)cccc1Cl [guanabenz]
- neurotoxic effects of NMDA antagonists in animals [2]: suppressed or prevented
- psychotomimetic effects of NMDA antagonists in humans [3]: suppressed or prevented

Structure (SMILES): OC(CCN1CCCC1)(c1ccccc1)C1CCCCC1 (stereo not shown) [procyclidine]
- relief for neuropathic pain ([1]; animal models, reported in journals): offers relief for neuropathic pain

Structure (SMILES): CC12CC3CC(C)(C1)CC(N)(C3)C2 [memantine]
- protection against excitotoxic damage [6]: some level of protection against excitotoxic damage
- further deterioration of cognitive function ([7]; Alzheimer patients): did not prevent further deterioration
- global assessment of cognition and ability to manage daily activities ([7]; low dose, middle-stage Alzheimer patients): transient and slight improvements
- improvement in depressive symptoms ([4]; 20 mg/day, 8 weeks, severe chronic depression (Zarate et al 2006a)): no signs of improvement

Structure (SMILES): CN1CCN(C2=Nc3cc(F)ccc3Cc3ccccc32)CC1 [fluperlapine]
- reduction of toxic side effects of MK-801 and PCP ([2]; tests on rats): reduce the toxic side effects

Structure (SMILES): O=C(CCCN1CCC(O)(c2ccc(Cl)cc2)CC1)c1ccc(F)cc1 [haloperidol]
- safening potency compared with sigma-selective drugs ([2]; required substantially higher dosages): not as potent or effective
- prevention of NMDA antagonist-induced vacuole formation ([8]; test animals, given at the same time as the NMDA antagonist, clinically relevant dosages): could not prevent

Structure (SMILES): CN[C@]1(c2ccccc2Cl)CCCCC1=O [S-ketamine]
- anesthetic potency relative to R-ketamine [9]: about twice as potent

Structure (SMILES): CN(C)CCC=C1c2ccccc2CCc2ccccc21 [amitriptyline]
- neuropathic pain-relieving activity ([10]; animal models, administered by itself): neuropathic pain-relieving activity
- effect on neuropathic pain-relieving activity of memantine ([10]; coadministered with memantine): potentiated
- safening activity against neurotoxic side effects of MK-801 ([8]; coadministered with MK-801, unpublished experiments): substantial safening activity

Structure (SMILES): c1ccc(C2(N3CCCCC3)CCCCC2)cc1 [phencyclidine]
- vacuole-forming ED100 dosage [11]: 4.0 mg/kg
- potency relative to MK-801 (from ED100 numbers) [11]: about 1/10

Structure (SMILES): CNC1(c2ccccc2Cl)CCCCC1=O (racemic) [ketamine]
- potency relative to phencyclidine (from ED100 numbers) ([11]; fraction of phencyclidine potency): about 1/10
- vacuole-forming ED100 dosage [11]: 40 mg/kg
- potency relative to MK-801 (from ED100 numbers) [11]: about 1/100
- side effects ([12]; continuous subcutaneous infusion, one patient (Backonja et al 1994)): intolerable cognitive and memory side effects
- side effects ([12]; single-dosage injections, six patients (Backonja et al 1994)): mild and well tolerated
- side effects ([12]; subcutaneous injections over 7 days and nights (Eide et al 1995)): intolerable side effects
- relief from depressive symptoms ([4]; intravenous infusion for 40 minutes, small group (Berman et al 2000)): transient but significant relief
- relief from depressive symptoms ([4]; prolonged subanesthetic intravenous infusion up to 4 days, 2 patients (Correll et al 2005)): rapid and lasting relief
- time to relief from depressive symptoms after infusion ([4]; single 40 minute intravenous infusion, treatment resistant depression (Zarate et al 2006b)): less than 2 hours
- duration of remission of symptoms ([4]; single 40 minute intravenous infusion, significant number of patients (Zarate et al 2006b)): up to a week
